Source: ChEMBL document CHEMBL3507680, “University of Dundee, Gates Library screen for HepG2 cell viability”

Assay: Human HepG2 cell viability assay in 384 well format
Format: toxicity, cell-based
Parameters: dose 125 nL, time 70.5 hour; concentration not given beside the values
Conditions: HepG2 cells, read-out: Inhibition

SMILES	cytotoxicity at 70.5 h [%]
CNC(=O)C(C)(C)N1CCC[C@H]1C(=O)NC1CCCC1	-0.301
COCCN1C[C@H]2CN(C(=O)NCc3ccccc3)CCN2C1=O	-8.58
O=C(NC[C@H]1OC[C@@H](NC2COC2)[C@@H]1O)C1CCCC1	-8.61
Cc1ccc(CNC2(Cc3cc(-c4cccc(O)c4)on3)COC2)o1	-8.24
CC(C)(O)c1cc(CC2(NCc3ccccc3Cl)COC2)no1	-0.604
CC(C)(C)CN[C@@H]1CO[C@H](CNC(=O)c2ccncc2)[C@H]1O	0.614
F[C@@H]1CN(CC2CC2)C[C@@H]1OCc1nc2ccccc2o1	-1.13
Cc1ccc2nc3n(c2c1)[C@@H](CNC(=O)c1ccncc1)COC3	4.47
COc1cccc(CNC[C@H]2COCc3nc4cccnc4n32)n1	-8.19
COc1ccc(C(=O)NC[C@H]2COCc3nc4cc(C)ccc4n32)cc1	-4.37
Cc1cccc2c1nc1n2[C@@H](CNC(=O)C2CCOCC2)COC1	-4.19
COCC(=O)N[C@H](C)c1c(-c2ccc(Cl)cc2)noc1C(=O)O	-2.23
Cc1cccc2c1nc1n2[C@@H](CNC(=O)Cc2ccccc2)COC1	-1.08
C[C@@H](NCc1cccc(Cl)c1)c1onc(-c2ccccc2)c1C(=O)O	-3.56
Cc1cccc(CNC[C@H]2Cn3ccnc3CO2)n1	-1.57
CCN(CC)[C@H]1C[C@@H](Cc2cc(CO)on2)C1(C)C	-7.1
CN1C(=O)CO[C@H](c2ccc(NC(=O)Cc3cccs3)cc2)[C@H]1CO	-6.23
O=C(c1ccc2c(c1)OCO2)N1CCN2C(=O)NC[C@H]2C1	-7.42
CC(C)(C)C(=O)NC[C@H]1Cn2c(-c3ccccc3)cnc2CO1	-9.72
O=C(NC[C@H]1Cn2c(-c3ccccc3)cnc2CO1)C1CCOCC1	-9.93
COCCO[C@H]1COCCN(Cc2ccc(OC)cc2)C1	8.32
CC(C)(C)c1coc([C@@H]2COCCN2Cc2c[nH]c3ccccc23)n1	1.59
CC(C)(C)C(=O)N1C[C@@H](F)[C@@H](OCc2nc3ccccc3o2)C1	-3.29
Cn1c(CN2CCOC[C@H]2c2nc(C(C)(C)C)co2)nc2ccccc21	-0.449
COc1ccc2c(c1)nc1n2[C@@H](CNCc2nccs2)COC1	-13.7
COc1ccc2c(c1)nc1n2[C@@H](CNCc2ccccc2)COC1	10.1

SMILES	cytotoxicity at 70.5 h [%]
F[C@@H]1CN(C2CCC2)C[C@@H]1OCc1nc2ncccc2[nH]1	15.4
CCN(CC)CC[C@H]1CN(C(=O)NC2CCCCC2)CC[C@H]1CC(=O)O	-1.74
CCN1C(=O)COC[C@@H]1[C@H](O)c1ccc(NC(=O)COC)cc1	11
FC(F)(F)Oc1ccc(-c2c[nH]c([C@@H]3COCCN3)n2)cc1	-3.01
CC(=O)N1C[C@@H](F)[C@@H](OCc2nc3ccc(C#N)cc3[nH]2)C1	-1.65
COc1ccc(CNC[C@H]2COCc3nc4cccnc4n32)cn1	-6.49
O=C(NC[C@H]1OC[C@@H](NC2CCOCC2)[C@@H]1O)Nc1ccccc1	14.3
CN1CCN2C(=O)N(c3ccccc3)C[C@H]2C1	-0.222
O=C(NC[C@H]1OC[C@@H](NC2CCOCC2)[C@@H]1O)c1cccs1	-8.14
CC(C)NC(=O)NC[C@H]1OC[C@@H](NCc2ccc(S(C)(=O)=O)cc2)[C@@H]1O	-3.26
COCCN1C[C@H]2CN(C(=O)NC(C)C)CCN2C1=O	-3.98
O=C(c1cccnc1)N1CCN2C(=O)N(Cc3ccc(F)cc3)C[C@H]2C1	9.22
CC(=O)N1CCOC[C@H](Oc2ccc(C(F)(F)F)cc2)C1	1.19
CC(C)CN1CCOC[C@H](Oc2ccc(S(C)(=O)=O)cc2)C1	13.8
Cn1ccnc1CN1C[C@H]2CN(S(=O)(=O)c3ccccc3)CCN2C1=O	-2.62
CN1CCN2C(=O)N(C3CCOCC3)C[C@H]2C1	-2.12
Clc1ccc(CN2CCOC[C@H](Oc3cccnc3)C2)cc1	-2.34
FC(F)(F)c1cccc(CN2CCOC[C@H](Oc3cccnc3)C2)c1	-1.63
CS(=O)(=O)NC[C@H]1Cn2c(-c3ccc(F)cc3)cnc2CO1	-3.71
CS(=O)(=O)NC[C@H]1Cn2c(-c3ccc(Cl)cc3)cnc2CO1	-7.36
O=C(NC[C@H]1Cn2c(-c3ccccc3)cnc2CO1)C1CC1	-7.19
CC(C)(C)CN[C@@H]1CO[C@H](CNC(=O)Nc2ccccc2)[C@H]1O	-1.92
c1cc(CN2CCOC[C@H]2c2nc(-c3ccncc3)c[nH]2)ccn1	1.86
CC(C)(C)c1c[nH]c([C@@H]2COCCN2C2CCCCC2)n1	-0.143
c1cncc(-c2c[nH]c([C@@H]3COCCN3Cc3ccncc3)n2)c1	1.27
CC(=O)N1CCC(N2CCOC[C@H]2c2nc(-c3ccncc3)c[nH]2)CC1	-0.136

SMILES	cytotoxicity at 70.5 h [%]
O=C1CCC2(CCCN(C(=O)c3cccs3)C2)N1 (configuration not stated)	35.1
CC(=O)N1CCC2(CC1)CN(C(=O)c1ccc3c(c1)OCO3)C2	5.17
CNC(=O)CN1C(=O)CCC12CCCN(Cc1ccccc1F)C2 (configuration not stated)	6.16
CNC(=O)CN1C(=O)CCC12CCCN(Cc1ccccn1)C2 (configuration not stated)	2.52
O=C(N[C@]12CC1CN(C(=O)c1ccco1)C2)c1ccoc1 (some centres not stated)	-7.38
CC(C)CN1C[C@@H]2C(=O)NC3(CCN(C(=O)c4cccnc4)CC3)[C@@H]2C1	-9.79
O=C1CC(c2cccs2)c2snc(C(=O)O)c2N1 (configuration not stated)	-9.35
CCCS(=O)(=O)N1CCN(c2cc(-n3nc(C)cc3C)nc(C)n2)CC1	-10.3
COc1ccc(C2CC(=O)Nc3c2cnn3C2CCCC2)cc1 (configuration not stated)	-11.1
CC(=O)c1cn(CC(=O)NC(C(=O)O)C(C)C)c2ccccc12 (configuration not stated)	0.278
CC(COc1ccccc1)NCc1nc(-c2cccnc2)no1 (configuration not stated)	-1.13
CCNC(=O)[C@@H]1CCCN1C1(C(=O)NC)CCCCC1	4.64
Cc1noc([C@@H](C)NCc2ccc(F)cc2)c1C(=O)O	-1.34
CC(C)NC(=O)NC[C@@]1(COc2cnccn2)C[C@@H](O)[C@@H](O)C1	3.08
C[C@@H](NC(=O)c1cnccn1)c1c(-c2ccc(Cl)cc2)noc1C(=O)O	-5.53
O=C(NCC1CCC2(CCNCC2)O1)C1CC1 (configuration not stated)	2.18
O[C@@H]1C[C@@](CNCc2ccc(Cl)cc2)(COc2cccnc2)C[C@@H]1O	-10.2
CN(Cc1ccco1)C1CCC12CCN(C(=O)C1CCOCC1)CC2 (configuration not stated)	-3.65
CN(Cc1ccco1)C1CCC12CCN(C(=O)N1CCCC1)CC2 (configuration not stated)	-7.66
COCc1nn(CC2CC2)c2c1CN(Cc1ccco1)CC2	-8.39
O=C1CC2(CNCCN(C(=O)Nc3ccccc3)C2)CN1 (configuration not stated)	-9.89
Cc1ccc(CN2CCCC3(CCC(=O)N3)CC2)s1 (configuration not stated)	-7.87
CN1C(=O)C2(CCN(Cc3nccn3C)CC2)c2ccccc21	-4.36
O=C(c1ccco1)N1C[C@@H]2CN(c3ccccn3)C[C@@H]2C1	-0.814
CC(C)C(=O)NC1COC2(CCN(Cc3cccnc3)CC2)C1 (configuration not stated)	-10.3
